What all share (assay type): biochemical
Experiment [1] addresses T1, Human recombinant PDE2A (hPDE2A) (Homo sapiens, UniProt O00408).
T1 construct: His tag (inferred from metal chelate purification); made in house; host or cells: Sf9 insect cells (baculovirus)
Kind of experiment: In vitro assay PDE2A (SPA, 3H-cGMP hydrolysis). The following applies: for Emax: read-out: hPDE2A Emax.

Experiment [2] concerns the target T2, Human recombinant PDE3A (hPDE3A) (Homo sapiens, UniProt Q14432).
T2 construct: purchased Scottish Biomedical; host or cells: Sf9 insect cells
Description: In vitro assay PDE3A (SPA, 3H-cAMP hydrolysis).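 For all read-outs here: the method names PDE3A and the table heading PDE3B.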 The following applies: for IC50: hPDE3B pIC50, read-out: pIC50 (converted); for Emax: read-out: hPDE3B Emax, read-out: Emax. The method, then: Human recombinant PDE3A (hPDE3A) was supplied as a partially purified insect cell lysate by Scottish Biomedical, it was cloned from human brain and expressed in Sf9 cells. Tested compounds were dissolved and diluted in 100% DMSO to a concentration 100 fold of the final concentration in the assay. Compound dilutions (0.4 μl) were added in 384 well plates to 20 μl of incubation buffer (50 mM Tris pH 7.8, 8.3 mM MgCl2, 1.7 mM EGTA). 10 μl of hPDE3A enzyme in incubation buffer was added and the reaction was started by addition of 10 μl substrate to a final concentration of 0.4 μM cAMP and 2.4 μCi/ml [^3H]-cAMP. The reaction was incubated for 60 min at room temperature. […] After sedimentation of the beads during 30 min the radioactivity was measured in a Perkin Elmer Topcount scintillation counter and results were expressed as cpm. For blanc values the enzyme was omitted from the reaction and replaced by incubation buffer. Control values were obtained by addition of a final concentration of 1% DMSO instead of compound.

Experiment [3] concerns the target T3, Human recombinant PDE10A (hPDE10A) (Homo sapiens, UniProt Q9Y233).
T3 construct: His tag (inferred from metal chelate purification); made in house; host or cells: Sf9 insect cells (baculovirus)
Description: In vitro assay PDE10A, human clone (SPA, 3H-cAMP hydrolysis). The method, then: Rat recombinant PDE10A (rPDE10A2) was expressed in Sf9 cells using a recombinant rPDE10A baculovirus construct. […] Tested compounds were dissolved and diluted in 100% DMSO to a concentration 100 fold of the final concentration in the assay. Human recombinant PDE10A ([…]) was expressed in Sf9 cells using a recombinant hPDE10A baculovirus that was made and amplified in house. […] Compound dilutions (0.4 μl) were added in 384 well plates to 20 μl of incubation buffer (50 mM Tris pH 7.8, 8.3 mM MgCl2, 1.7 mM EGTA). 10 μl of rPDE10A or hPDE10A enzyme in incubation buffer was added and the reaction was started by addition of 10 μl substrate to a final concentration of 60 nM cAMP and 0.008 μCi ^3H-cAMP. The reaction was incubated for 60 minutes at room temperature. […] After sedimentation of the beads during 30 minutes the radioactivity was measured in a Perkin Elmer Topcount scintillation counter and results were expressed as cpm. For blanc values the enzyme was omitted from the reaction and replaced by incubation buffer. Control values were obtained by addition of a final concentration of 1% DMSO instead of compound.

The mark [4] stands for this setting: human recombinant PDE2A, 10 μM cGMP substrate, read-out: hPDE2A pIC50 (converted).
[5] abbreviates: read-out: hPDE2A pIC50 (converted).
Setting [6] is: human clone (h), default, read-out: hPDE10A2 Emax.
Setting [7] is: human clone (h), default, read-out: hPDE10A2 pIC50 (converted).
Where [8] appears, read: hPDE2A pIC50, human recombinant PDE2A, 10 μM cGMP substrate.

Structures can show the parent of a compound that is named as a salt. Where two headings read alike, the source gives them in different places.

As a reminder, the Emax is the size of the effect at its maximum, as opposed to the concentration needed.

T2 sequence (Q14432 whole entry): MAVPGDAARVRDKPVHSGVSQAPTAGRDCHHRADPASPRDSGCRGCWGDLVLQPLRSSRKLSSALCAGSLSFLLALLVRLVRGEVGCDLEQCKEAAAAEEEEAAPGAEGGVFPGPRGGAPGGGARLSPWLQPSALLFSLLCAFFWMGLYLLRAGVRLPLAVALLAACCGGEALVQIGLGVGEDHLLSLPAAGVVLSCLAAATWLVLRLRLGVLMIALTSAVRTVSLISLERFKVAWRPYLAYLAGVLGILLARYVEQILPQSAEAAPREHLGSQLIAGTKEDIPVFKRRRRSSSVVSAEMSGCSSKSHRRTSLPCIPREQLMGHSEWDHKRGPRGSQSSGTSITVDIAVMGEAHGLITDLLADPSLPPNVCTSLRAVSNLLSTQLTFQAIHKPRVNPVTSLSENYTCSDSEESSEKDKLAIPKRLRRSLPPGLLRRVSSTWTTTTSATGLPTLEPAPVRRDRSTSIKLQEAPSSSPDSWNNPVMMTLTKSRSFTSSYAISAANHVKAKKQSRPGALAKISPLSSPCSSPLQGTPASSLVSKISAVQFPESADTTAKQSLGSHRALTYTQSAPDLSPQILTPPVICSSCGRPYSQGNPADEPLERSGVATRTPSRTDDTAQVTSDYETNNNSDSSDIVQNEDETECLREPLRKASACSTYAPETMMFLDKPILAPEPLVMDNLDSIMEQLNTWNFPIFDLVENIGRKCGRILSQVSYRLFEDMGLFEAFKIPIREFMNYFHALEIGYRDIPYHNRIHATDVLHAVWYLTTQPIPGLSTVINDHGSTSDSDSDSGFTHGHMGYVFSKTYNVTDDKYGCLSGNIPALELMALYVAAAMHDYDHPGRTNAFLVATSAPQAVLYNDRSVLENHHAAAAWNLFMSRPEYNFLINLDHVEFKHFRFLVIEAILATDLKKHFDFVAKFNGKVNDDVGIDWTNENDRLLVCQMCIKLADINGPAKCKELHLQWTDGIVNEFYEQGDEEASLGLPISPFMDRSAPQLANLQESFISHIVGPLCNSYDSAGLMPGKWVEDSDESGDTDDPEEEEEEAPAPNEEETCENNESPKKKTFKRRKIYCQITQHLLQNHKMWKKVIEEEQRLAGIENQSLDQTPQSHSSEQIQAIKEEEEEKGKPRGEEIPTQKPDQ
T3 sequence (Q9Y233 267-1055): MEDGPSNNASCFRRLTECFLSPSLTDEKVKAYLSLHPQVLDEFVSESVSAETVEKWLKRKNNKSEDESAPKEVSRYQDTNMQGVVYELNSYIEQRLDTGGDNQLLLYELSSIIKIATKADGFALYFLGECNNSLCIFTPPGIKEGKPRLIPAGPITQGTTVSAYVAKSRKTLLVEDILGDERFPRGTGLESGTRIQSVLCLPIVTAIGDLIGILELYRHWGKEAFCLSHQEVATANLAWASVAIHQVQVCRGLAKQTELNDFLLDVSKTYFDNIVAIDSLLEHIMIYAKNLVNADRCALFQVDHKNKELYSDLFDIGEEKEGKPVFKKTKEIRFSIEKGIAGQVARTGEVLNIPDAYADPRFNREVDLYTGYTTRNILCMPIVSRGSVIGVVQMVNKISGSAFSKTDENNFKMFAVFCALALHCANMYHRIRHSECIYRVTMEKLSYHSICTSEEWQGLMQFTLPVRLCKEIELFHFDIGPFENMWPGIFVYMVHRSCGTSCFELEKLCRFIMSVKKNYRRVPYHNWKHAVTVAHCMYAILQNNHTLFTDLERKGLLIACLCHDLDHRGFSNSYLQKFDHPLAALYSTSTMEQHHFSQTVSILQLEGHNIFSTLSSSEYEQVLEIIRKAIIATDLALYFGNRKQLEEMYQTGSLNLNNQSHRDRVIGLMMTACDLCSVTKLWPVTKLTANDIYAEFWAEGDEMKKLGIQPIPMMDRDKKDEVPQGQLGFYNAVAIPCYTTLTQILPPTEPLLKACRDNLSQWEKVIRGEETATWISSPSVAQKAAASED
T1 sequence (O00408 whole entry): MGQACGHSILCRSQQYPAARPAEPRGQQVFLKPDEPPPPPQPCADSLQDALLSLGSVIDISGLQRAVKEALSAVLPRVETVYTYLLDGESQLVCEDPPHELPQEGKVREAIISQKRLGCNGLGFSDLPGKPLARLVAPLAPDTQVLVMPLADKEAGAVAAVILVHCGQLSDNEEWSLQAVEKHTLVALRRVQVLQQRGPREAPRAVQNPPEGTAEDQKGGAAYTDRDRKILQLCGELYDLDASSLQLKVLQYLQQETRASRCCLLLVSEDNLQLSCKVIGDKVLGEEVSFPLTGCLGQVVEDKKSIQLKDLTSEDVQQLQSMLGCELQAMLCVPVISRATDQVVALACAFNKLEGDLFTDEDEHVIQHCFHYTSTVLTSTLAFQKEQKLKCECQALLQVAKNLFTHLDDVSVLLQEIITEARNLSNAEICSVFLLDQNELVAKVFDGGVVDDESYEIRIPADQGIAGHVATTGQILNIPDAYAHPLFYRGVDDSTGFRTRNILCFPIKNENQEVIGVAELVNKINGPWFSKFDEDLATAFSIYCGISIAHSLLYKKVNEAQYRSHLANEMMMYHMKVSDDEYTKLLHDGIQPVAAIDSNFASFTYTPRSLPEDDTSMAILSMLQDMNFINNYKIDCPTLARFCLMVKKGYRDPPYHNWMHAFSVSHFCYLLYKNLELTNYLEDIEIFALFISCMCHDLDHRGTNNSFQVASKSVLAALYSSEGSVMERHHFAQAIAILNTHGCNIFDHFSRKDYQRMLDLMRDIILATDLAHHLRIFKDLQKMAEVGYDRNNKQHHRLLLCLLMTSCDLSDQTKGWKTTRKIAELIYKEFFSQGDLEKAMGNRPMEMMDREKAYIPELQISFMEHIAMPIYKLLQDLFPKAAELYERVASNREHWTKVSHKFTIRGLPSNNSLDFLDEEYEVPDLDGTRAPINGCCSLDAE

Regarding `CCCC[C@@H]1CCN(C(=O)c2cc(C)nc(C)c2)C[C@H]1c1cc(C(F)F)nc2ncnn12` (mixture of isomers) [Compound 44], the IC50 is 9.55 nM in experiment [1] (setting [4]), 9.55 nM in experiment [1] (setting [5]), > 10000 nM in experiment [2] and 2570 nM in experiment [3] (setting [7]). Also, the Emax in experiment [1] (human recombinant PDE2A) came out at 100%; in experiment [1], 100%; in experiment [2] it was 39%; in experiment [3] (setting [6]), 79%.

Take `CCCC[C@H]1CCN(C(=O)c2cc(C)nc(C)c2)C[C@H]1c1cc(C(F)F)nc2ncnn12` (mixture of isomers) [Compound 219]: the IC50 in experiment [1] (setting [4]) was 138 nM; in experiment [1] (setting [5]), 138 nM; in experiment [2], > 10000 nM; in experiment [3] (setting [7]), 9120 nM; in experiment [3] (human clone by default (no (r) mark), read-out: hPDE10A2 or rPDE10A2 pIC50 (converted)), 9120 nM. Moreover, the Emax in experiment [1] (human recombinant PDE2A) turned out to be 100%; in experiment [1] it was 100%; in experiment [2], 18%; in experiment [3] (setting [6]), 45%; in experiment [3] (human clone by default (no (r) mark), read-out: hPDE10A2 or rPDE10A2 Emax) it was 45%.

For the compound `CCCC[C@@H]1CCN(C(=O)c2cc(C)nc(C)c2)C[C@H]1c1cc(C(F)F)nc2ncnn12` (single isomer, unassigned) [Compound 45], the IC50 in experiment [1] (setting [4]), in experiment [1] (setting [5]), in experiment [2] and in experiment [3] (setting [7]) was > 10000 nM throughout. Further, the Emax in experiment [1] (human recombinant PDE2A) came to 37%; in experiment [1], 37%; in experiment [2], 1%; in experiment [3] (setting [6]) it was 24%.

For `O=C(c1ccc2occc2c1)N1CCC[C@](F)(c2cc(C(F)F)nc3ncnn23)C1` (single isomer, unassigned) [Compound 138], the Emax amounted to 93% in experiment [1], 64% in experiment [2] and 24% in experiment [3] (setting [6]). In addition, the figures for the IC50 in experiment [1] (setting [5]), in experiment [2] and in experiment [3] (setting [7]) were 28.2 nM, 4900 nM and > 10000 nM, respectively.

For the compound `C[C@]1(c2cc(C(F)F)nc3ncnn23)CCCN(C(=O)c2ccc3c(ccn3CCF)c2)C1` (single isomer, unassigned) [Compound 200], the IC50 was 97.7 nM in experiment [1] (setting [4]), 97.7 nM in experiment [1] (setting [5]), > 10000 nM in experiment [2] and > 10000 nM in experiment [3] (setting [7]). The Emax in experiment [1] (human recombinant PDE2A) was determined as 91%; in experiment [1] it was 91%; in experiment [2], 35%; in experiment [3] (setting [6]) it was 13%.

In the case of `Cc1csc(C(=O)N2CCC[C@](C)(c3cc(C(F)F)nc4ncnn34)C2)c1` (single isomer, unassigned) [Compound 208], the IC50 in experiment [1] (setting [4]) was 589 nM; in experiment [1] (setting [5]) it was 589 nM; in experiment [2], > 10000 nM; in experiment [3] (setting [7]) it was > 10000 nM. In addition, the Emax is 62% in experiment [1] (human recombinant PDE2A), 62% in experiment [1], 30% in experiment [2] and 4% in experiment [3] (setting [6]).

Turning to `C[C@]1(c2cc(C(F)F)nc3ncnn23)CCCN(C(=O)c2ccc3nccn3c2)C1` (single isomer, unassigned) [Compound 212], the IC50 in experiment [1] (setting [4]) is 575 nM; in experiment [1] (setting [5]), 575 nM; in experiment [2], > 10000 nM; in experiment [3] (setting [7]) it was > 10000 nM. Also, the Emax in experiment [1] (human recombinant PDE2A) turned out to be 61%; in experiment [1], 61%; in experiment [2], 7%; in experiment [3] (setting [6]), 8%.

With `Cc1cc(C(=O)N2CC[C@H](C)[C@@H](c3cc(C(F)F)nc4ncnn34)C2)cc(C)n1` [220 (•HCl)], the IC50 in experiment [1] (setting [8]) was 977 nM; in experiment [3] (setting [7]), > 10000 nM. In addition, the Emax came out at 54% in experiment [1] and 27% in experiment [3] (setting [6]).

On to `Cc1cc(C(=O)N2CC[C@H](C)[C@@H](c3cc(C)nc4ncnn34)C2)cc(C)n1` [Compound 1b], for which, in experiment [1], the “hPDE2A Emax” value stood at 88 and the “hPDE2A pIC50” value is 5.96. For the same compound, the “hPDE2A Emax” value in experiment [1] (human recombinant PDE2A) came to 88. Moreover, in experiment [1] (human recombinant PDE2A, 10 μM cGMP substrate), the “hPDE2A pIC50” value was 5.96. For the same compound, the “hPDE3B Emax” value in experiment [2] stood at 13. Also, in experiment [3] (human clone (h), default), the “hPDE10A2 Emax” value is listed as 50 and the “hPDE10A2 pIC50” value was 5.01.

As for `Cc1cc([C@H]2CN(C(=O)c3ccc(C)c(C)n3)CC[C@@H]2C)n2ncnc2n1` [Compound 3b], the IC50 in experiment [1] (hPDE2A pIC50) is 5620 nM; in experiment [1] (setting [8]) it was 5620 nM; in experiment [2] it was > 10000 nM; in experiment [3] (setting [7]) it was > 10000 nM. Also, the figures for the maximum response (Emax) in experiment [1], in experiment [2] and in experiment [3] (setting [6]) were 64%, 14% and 19%, respectively.

As to `Cc1cc([C@@H]2CN(C(=O)c3ccc4occ(C)c4c3)CC[C@H]2C)n2ncnc2n1` [Compound 5], the IC50 in experiment [1] (hPDE2A pIC50) was 0.955 nM; in experiment [1] (setting [8]), 0.955 nM; in experiment [2], 589 nM; in experiment [3] (setting [7]), 8.91 nM. In addition, the maximal response (Emax) in experiment [1] worked out at 100%; in experiment [2], 97%; in experiment [3] (setting [6]), 100%.

Regarding `Cc1cc([C@@H]2CN(C(=O)c3oc4ccccc4c3C)CC[C@H]2C)n2ncnc2n1` [Compound 7], the IC50 was 0.794 nM in experiment [1] (setting [4]), 0.794 nM in experiment [1] (setting [5]), 75.9 nM in experiment [2] and 17 nM in experiment [3] (setting [7]). Further, the Emax in experiment [1] (human recombinant PDE2A) is 100%; in experiment [1], 100%; in experiment [2], 100%; in experiment [3] (setting [6]), 101%.

As to `Cc1cc([C@@H]2CN(C(=O)c3cc4ccccc4o3)CC[C@H]2C)n2ncnc2n1` [Compound 8], the IC50 in experiment [1] (setting [4]) was 1.1 nM; in experiment [1] (setting [5]), 1.1 nM; in experiment [2], 275 nM; in experiment [3] (setting [7]), 11.2 nM. Also, the Emax was 100% in experiment [1] (human recombinant PDE2A), 100% in experiment [1], 97% in experiment [2] and 100% in experiment [3] (setting [6]).

Turning to `Cc1cc([C@@H]2CN(C(=O)c3ccc(C(C)(C)C)o3)CC[C@H]2C)n2ncnc2n1` [Compound 9], the IC50 in experiment [1] (setting [4]) was 13.8 nM; in experiment [1] (setting [5]), 13.8 nM; in experiment [2], 4270 nM; in experiment [3] (setting [7]), 74.1 nM. In addition, the Emax in experiment [1] (human recombinant PDE2A) turned out to be 101%; in experiment [1] it was 101%; in experiment [2], 74%; in experiment [3] (setting [6]), 100%.

Turning to `Cc1cc([C@@H]2CN(C(=O)c3ccnc(Cl)c3F)CC[C@H]2C)n2ncnc2n1` [Compound 11], the IC50 was 22.9 nM in experiment [1] (setting [4]), 22.9 nM in experiment [1] (setting [5]), 4790 nM in experiment [2] and 372 nM in experiment [3] (setting [7]). Besides, the Emax in experiment [1] (human recombinant PDE2A) was determined as 100%; in experiment [1] it was 100%; in experiment [2], 69%; in experiment [3] (setting [6]), 95%.

As for `Cc1cc([C@@H]2CN(C(=O)c3cc4c(nc3Cl)CCCC4)CC[C@H]2C)n2ncnc2n1` [Compound 12], the IC50 in experiment [1] (setting [4]) was 21.4 nM; in experiment [1] (setting [5]) it was 21.4 nM; in experiment [2], 1100 nM; in experiment [3] (setting [7]), 363 nM. Also, the Emax is 101% in experiment [1] (human recombinant PDE2A), 101% in experiment [1], 94% in experiment [2] and 97% in experiment [3] (setting [6]).

`Cc1cc([C@@H]2CN(C(=O)c3ccn(C)c3)CC[C@H]2C)n2ncnc2n1` [Compound 14]: the IC50 in experiment [1] (setting [4]) was 6.03 nM; in experiment [1] (setting [5]), 6.03 nM; in experiment [2] it was 4680 nM; in experiment [3] (setting [7]) it was 89.1 nM. The Emax in experiment [1] (human recombinant PDE2A) was found to be 99%; in experiment [1], 99%; in experiment [2], 70%; in experiment [3] (setting [6]) it was 99%.

As for `Cc1cc([C@@H]2CN(C(=O)c3ccnc(Cl)c3)CC[C@H]2C)n2ncnc2n1` [Compound 15], the IC50 in experiment [1] (hPDE2A pIC50) is 3.24 nM; in experiment [1] (setting [8]) it was 3.24 nM; in experiment [2], 8130 nM; in experiment [3] (setting [7]) it was 72.4 nM. For the same compound, the Emax in experiment [1] amounted to 100%; in experiment [2], 54%; in experiment [3] (setting [6]) it was 97%.

As for `Cc1cc([C@@H]2CN(C(=O)c3cc(C)sc3C)CC[C@H]2C)n2ncnc2n1` [Compound 16], the IC50 is 6.17 nM in experiment [1] (setting [4]), 6.17 nM in experiment [1] (setting [5]), 1660 nM in experiment [2] and 63.1 nM in experiment [3] (setting [7]). Moreover, the Emax in experiment [1] (human recombinant PDE2A) is 100%; in experiment [1] it was 100%; in experiment [2] it was 88%; in experiment [3] (setting [6]), 98%.

The record behind these values is patent US10947242B2, “[1,2,4]triazolo[1,5and#8208;A]pyrimidine compounds as PDE2 inhibitors” (Janssen Pharmaceutica NV, priority 2016, dated 2021).
